Assay results published in the NIST ThermoML archive (doi:10.1016/j.jct.2014.07.003).

Experiment: mn = molality of the nth substance listed, in mol/kg
Conditions: 99 kPa, Liquid, Alternating current cell with electrodes

CCCCCCCCCCCC[N+](C)(C)C.[Br-] [dodecyltrimethylammonium bromide] + O
electrical conductivity [S/m]
Conditions	288.15 K	293.15 K	298.15 K	303.15 K	308.15 K	313.15 K	318.15 K
m1 = 0.0015	0.0137	0.014	0.0143	0.0144	0.0153	0.0169	0.018
m1 = 0.003	0.0265	0.027	0.0273	0.0278	0.0286	0.032	0.034
m1 = 0.0045	0.039	0.0397	0.0412	0.0413	0.042	0.0469	0.049
m1 = 0.0059	0.05	0.052	0.053	0.0545	0.0547	0.0605	0.0645
m1 = 0.0073	0.061	0.0635	0.0659	0.067	0.0675	0.0749	0.0771
m1 = 0.0087	0.0725	0.0748	0.0769	0.079	0.0795	0.088	0.0905
m1 = 0.0101	0.0837	0.086	0.089	0.0895	0.0903	0.101	0.103
m1 = 0.0116	0.095	0.0975	0.1	0.101	0.102	0.114	0.116
m1 = 0.013	0.106	0.108	0.11	0.112	0.113	0.126	0.128
m1 = 0.0144	0.115	0.118	0.12	0.122	0.123	0.135	0.138
m1 = 0.0157	0.124	0.126	0.128	0.129	0.131	0.142	0.145
m1 = 0.017	0.129	0.131	0.132	0.134	0.136	0.146	0.15
m1 = 0.0184	0.132	0.133	0.134	0.137	0.14	0.15	0.154
m1 = 0.0197	0.135	0.136	0.136	0.14	0.142	0.154	0.158
m1 = 0.021	0.137	0.138	0.139	0.143	0.145	0.157	0.161
m1 = 0.0223	0.139	0.14	0.142	0.146	0.148	0.159	0.163
m1 = 0.0236	0.141	0.142	0.143	0.149	0.152	0.162	0.167
m1 = 0.0249	0.143	0.144	0.146	0.151	0.154	0.164	0.17
m1 = 0.0274	0.146	0.149	0.15	0.155	0.158	0.168	0.174
m1 = 0.0286	0.148	0.151	0.153	0.157	0.16	0.17	0.177
m1 = 0.0298	0.15	0.154	0.156	0.159	0.162	0.172	0.179
